pKi: −log10 of the molar value. Bounds are passed on as bounds.

Test [1] concerns the target T1, JAK3 (Homo sapiens, UniProt P52333).
T1 sequence (P52333 1-1124): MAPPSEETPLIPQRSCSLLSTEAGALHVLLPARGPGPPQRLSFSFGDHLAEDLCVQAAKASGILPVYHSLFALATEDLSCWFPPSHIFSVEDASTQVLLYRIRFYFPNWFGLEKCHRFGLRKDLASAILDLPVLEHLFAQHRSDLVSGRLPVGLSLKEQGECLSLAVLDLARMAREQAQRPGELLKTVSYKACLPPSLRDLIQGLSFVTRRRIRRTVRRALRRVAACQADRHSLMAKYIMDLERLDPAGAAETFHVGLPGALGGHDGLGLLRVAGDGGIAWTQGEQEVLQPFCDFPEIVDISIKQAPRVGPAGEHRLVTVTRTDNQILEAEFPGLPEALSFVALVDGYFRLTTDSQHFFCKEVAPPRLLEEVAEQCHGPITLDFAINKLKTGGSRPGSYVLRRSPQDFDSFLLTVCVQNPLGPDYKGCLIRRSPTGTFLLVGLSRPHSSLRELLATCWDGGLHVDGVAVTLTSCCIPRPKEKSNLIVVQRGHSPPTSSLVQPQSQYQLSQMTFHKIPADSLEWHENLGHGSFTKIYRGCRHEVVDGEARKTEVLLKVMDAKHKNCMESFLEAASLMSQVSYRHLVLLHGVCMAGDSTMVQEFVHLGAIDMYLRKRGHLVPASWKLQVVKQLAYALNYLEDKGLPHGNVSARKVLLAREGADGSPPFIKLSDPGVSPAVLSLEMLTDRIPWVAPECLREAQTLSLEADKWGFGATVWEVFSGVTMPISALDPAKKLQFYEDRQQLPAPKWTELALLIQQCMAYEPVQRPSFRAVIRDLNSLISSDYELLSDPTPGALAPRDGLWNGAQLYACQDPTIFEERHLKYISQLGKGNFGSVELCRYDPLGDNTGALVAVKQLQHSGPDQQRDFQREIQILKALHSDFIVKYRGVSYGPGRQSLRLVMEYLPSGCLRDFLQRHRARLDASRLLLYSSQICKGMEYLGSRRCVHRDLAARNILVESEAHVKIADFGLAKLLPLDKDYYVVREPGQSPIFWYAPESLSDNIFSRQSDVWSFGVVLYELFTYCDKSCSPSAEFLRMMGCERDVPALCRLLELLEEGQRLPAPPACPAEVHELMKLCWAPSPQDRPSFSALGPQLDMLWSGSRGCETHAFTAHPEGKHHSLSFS
The test can be described thus: JAK3 inhibition assay (radiometric 33P filter assay). In kind it is biochemical. To be noted: 1 μM poly(Glu)4Tyr, 5 μM ATP, 1 nM JAK3, 25° C.; read-out: JAK3 inhibition data (Ki). The protocol: (§1) Compounds were screened for their ability to inhibit JAK using the assay shown below. Reactions were carried out in a kinase buffer containing 100 mM HEPES (pH 7.4), 1 mM DTT, 10 mM MgCl2, 25 mM NaCl, and 0.01% BSA.
(§2) Substrate concentrations in the assay were 5 μM ATP (200 uCi/μmole ATP) and 1 μM poly(Glu)4Tyr. Reactions were carried out at 25° C. and 1 nM JAK3.
(§3) To each well of a 96 well polycarbonate plate was added 1.5 μl of a candidate JAK3 inhibitor along with 50 μl of kinase buffer containing 2 μM poly(Glu)4Tyr and 10 μM ATP. This was then mixed and 50 μl of kinase buffer containing 2 nM JAK3 enzyme was added to start the reaction. After 20 minutes at room temperature (25° C.), the reaction was stopped with 50 μl of 20% trichloroacetic acid (TCA) that also contained 0.4 mM ATP. The entire contents of each well were then transferred to a 96 well glass fiber filter plate using a TomTek Cell Harvester. After washing, 60 μl of scintillation fluid was added and ^33P incorporation detected on a Perkin Elmer TopCount.

The target in test [2] is JAK-2 enzyme (Homo sapiens, UniProt O60674). The test can be described thus: JAK2 inhibition assay (radiometric 33P filter assay). Conditions: 15 μM poly(Glu)4Tyr, 12 μM ATP; read-out: JAK2 inhibition data (Ki). In kind it is biochemical. As to the method:
as §1, §2, §3
The assays were as described above in Example 25 except that JAK-2 enzyme was used, the final poly(Glu)4Tyr concentration was 15 μM, and final ATP concentration was 12 μM.

Sequence of JAK-2 enzyme (O60674 whole entry, species assumed): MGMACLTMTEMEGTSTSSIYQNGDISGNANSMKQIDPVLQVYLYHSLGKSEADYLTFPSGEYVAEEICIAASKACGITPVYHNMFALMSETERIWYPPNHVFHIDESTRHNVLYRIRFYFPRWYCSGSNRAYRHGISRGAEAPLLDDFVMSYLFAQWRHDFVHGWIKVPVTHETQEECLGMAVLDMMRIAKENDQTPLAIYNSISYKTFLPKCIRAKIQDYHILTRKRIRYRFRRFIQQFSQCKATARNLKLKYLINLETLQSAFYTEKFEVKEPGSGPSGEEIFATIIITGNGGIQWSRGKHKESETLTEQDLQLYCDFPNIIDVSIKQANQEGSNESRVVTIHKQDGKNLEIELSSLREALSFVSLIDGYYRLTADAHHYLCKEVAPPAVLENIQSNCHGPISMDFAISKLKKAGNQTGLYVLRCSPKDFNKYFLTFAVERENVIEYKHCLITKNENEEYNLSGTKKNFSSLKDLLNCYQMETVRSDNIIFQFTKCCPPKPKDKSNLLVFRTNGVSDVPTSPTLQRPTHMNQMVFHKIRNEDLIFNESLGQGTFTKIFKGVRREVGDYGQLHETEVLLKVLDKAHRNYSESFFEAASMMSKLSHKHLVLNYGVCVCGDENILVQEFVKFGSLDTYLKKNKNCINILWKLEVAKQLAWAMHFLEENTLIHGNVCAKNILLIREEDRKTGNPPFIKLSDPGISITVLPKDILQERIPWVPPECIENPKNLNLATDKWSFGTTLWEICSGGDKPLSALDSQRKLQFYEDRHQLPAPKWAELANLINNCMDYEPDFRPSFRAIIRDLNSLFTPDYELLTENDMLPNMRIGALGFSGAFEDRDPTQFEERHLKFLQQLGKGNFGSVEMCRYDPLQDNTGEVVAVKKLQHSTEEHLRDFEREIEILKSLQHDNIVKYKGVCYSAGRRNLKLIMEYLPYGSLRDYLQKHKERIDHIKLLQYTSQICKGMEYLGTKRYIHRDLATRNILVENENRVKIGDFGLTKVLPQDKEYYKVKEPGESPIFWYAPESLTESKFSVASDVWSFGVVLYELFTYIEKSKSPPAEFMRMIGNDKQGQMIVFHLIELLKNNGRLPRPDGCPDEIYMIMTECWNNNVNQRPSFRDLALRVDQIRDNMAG

For the molecule `CCCNC(=O)Nc1ccc(Nc2nc(N)n(-c3cc(N4C[C@@H](C)N(C(C)=O)[C@@H](C)C4)ncn3)n2)cc1` [Compound 68], the pKi in test [1] and in test [2] was over 7.30 each time.
As to `CC(=O)N1[C@H](C)CN(c2cc(-n3nc(Nc4ccc(N5CCN(C(=O)OCC(C)(C)C)CC5)cc4)nc3N)ccn2)C[C@@H]1C` [Compound 142], the pKi in test [1] and in test [2] was over 7.30 each time.
As for `CC(=O)N1CCCN(c2cc(-n3nc(Nc4ccc(N5CCN(C(=O)C6CCC6)CC5)cc4)nc3N)ncn2)CC1` [Compound 40], the pKi in test [1] and in test [2] was over 7.30 each time.
For the molecule `CC(=O)N1CCCN(c2cc(-n3nc(Nc4ccc(N5CCCCC5)cc4)nc3N)ncn2)CC1` [Compound 13], the pKi in test [1] and in test [2] was over 7.30 each time.
Regarding `CC(=O)N1[C@H](C)CN(c2cc(-n3nc(Nc4ccc(N(C)C(=O)OCC(C)C)cc4)nc3N)ncn2)C[C@@H]1C` [Compound 120], the pKi in test [1] and in test [2] was over 7.30 in each case.
Consider `COCC(=O)N1CCCN(c2cc(-n3nc(Nc4ccc(N5CCOCC5)cc4)nc3N)ncn2)CC1` [Compound 5], for which the pKi in test [1] and in test [2] was over 7.30 throughout.
For the molecule `CCOC(=O)N(C)c1ccc(Nc2nc(N)n(-c3cc(N4CCCN(C(C)=O)CC4)ncn3)n2)cc1` [Compound 127], the pKi in test [1] and in test [2] was over 7.30 throughout.
Consider `CC(=O)N1[C@H](C)CN(c2cc(-n3nc(Nc4ccc(NC(=O)OCC(C)(C)C)cc4)nc3N)ccn2)C[C@@H]1C` [Compound 104], for which the pKi in test [1] and in test [2] was over 7.30 each time.
For the molecule `CCOC(=O)N1CCN(c2ccc(Nc3nc(N)n(-c4cc(N5CCCN(S(=O)(=O)CC)CC5)ncn4)n3)cc2)CC1` [Compound 145], the pKi in test [1] and in test [2] was 6.30 to 7.30 each time.
`CC(=O)N1[C@H](C)CN(c2cc(-n3nc(Nc4ccc(N5CCN(C(=O)OCC(C)C)CC5)cc4)nc3N)ncn2)C[C@@H]1C` [Compound 58]: the negative-log Ki (pKi) in test [1] and in test [2] was over 7.30 each time.
For `CC(=O)N1[C@H](C)CN(c2cc(-n3nc(Nc4ccc(NC(=O)CCC(C)C)cc4)nc3N)ccn2)C[C@@H]1C` [Compound 110], the pKi in test [1] and in test [2] was over 7.30 each time.
As to `CC(=O)N1[C@H](C)CN(c2cc(-n3nc(Nc4ccc(NC(=O)OCC(C)(C)C)cc4)nc3N)ncn2)C[C@@H]1C` [Compound 80], the pKi in test [1] and in test [2] was over 7.30 throughout.
For the molecule `CC(=O)N1CCCN(c2cc(-n3nc(Nc4ccc(NC(=O)C5CCC(C)CC5)cc4)nc3N)ncn2)CC1` (centres unmarked) [Compound 24], the pKi in test [1] and in test [2] was over 7.30 each time.
As to `CC(=O)N1CCCN(c2cc(-n3nc(Nc4ccc(N5CCN(C(=O)OC6CCOC6)CC5)cc4)nc3N)ncn2)CC1` (centres unmarked) [Compound 43], the pKi in test [1] and in test [2] was over 7.30 throughout.
Consider `CC(=O)N1[C@H](C)CN(c2cc(-n3nc(Nc4ccc(NC(=O)O[C@H]5C[C@H](C)CC[C@H]5C(C)C)cc4)nc3N)ncn2)C[C@@H]1C` [Compound 82], for which the pKi in test [1] was 6.30 to 7.30; in test [2], over 7.30.
Regarding `CCS(=O)(=O)N1CCCN(c2cc(-n3nc(Nc4ccc(N5CCN(C(=O)OC(C)C)CC5)cc4)nc3N)ccn2)CC1` [Compound 169], the pKi in test [1] and in test [2] was 6.30 to 7.30 each time.
In the case of `CC(=O)N1CCCN(c2cc(-n3nc(Nc4ccc(NC(=O)Oc5ccc(C)cc5)cc4)nc3N)ncn2)CC1` [Compound 96], the pKi in test [1] and in test [2] was over 7.30 in each case.
For the molecule `CC(=O)N1CCCN(c2cc(-n3nc(Nc4ccc(N5CCN(C(=O)OCC(C)(C)C)CC5)cc4)nc3N)ncn2)CC1` [Compound 49], the pKi in test [1] and in test [2] was over 7.30 each time.
As to `CC(=O)N1CCCN(c2cc(-n3nc(Nc4ccc(N5CCN(C(=O)OC(C)(C)C)CC5)cc4)nc3N)ncn2)CC1` [Compound 34], the pKi in test [1] and in test [2] was over 7.30 in each case.
Take `CC(=O)N1[C@H](C)CN(c2cc(-n3nc(Nc4ccc(NC(=O)OC(C)(C)C)cc4)nc3N)ccn2)C[C@@H]1C` [Compound 109]: the pKi in test [1] and in test [2] was over 7.30 each time.
For `CC(=O)N1[C@H](C)CN(c2cc(-n3nc(Nc4ccc(N(C)C(=O)OC(C)C)cc4)nc3N)ncn2)C[C@@H]1C` [Compound 119], the pKi in test [1] and in test [2] was over 7.30 in each case.
As for `COC(=O)Nc1ccc(Nc2nc(N)n(-c3ccnc(N4CCCN(C(C)=O)CC4)c3)n2)cc1` [Compound 170], the pKi in test [1] and in test [2] was 6.30 to 7.30 in each case.
In the case of `CCCNC(=O)N1CCN(c2ccc(Nc3nc(N)n(-c4cc(N5C[C@@H](C)N(C(C)=O)[C@@H](C)C5)ncn4)n3)cc2)CC1` [Compound 61], the pKi in test [1] and in test [2] was over 7.30 throughout.
As for `CC(=O)N1CCCN(c2cc(-n3nc(Nc4ccc(NC(=O)OCC(C)C)cc4)nc3N)ncn2)CC1` [Compound 94], the pKi in test [1] and in test [2] was over 7.30 in each case.
Take `CC(=O)Nc1ccc(Nc2nc(N)n(-c3cc(N4C[C@@H](C)N(C(C)=O)[C@@H](C)C4)ncn3)n2)cc1` [Compound 112]: the pKi in test [1] and in test [2] was over 7.30 throughout.
Take `CNc1ccc(Nc2nc(N)n(-c3cc(N4CCCN(C(C)=O)CC4)ncn3)n2)cc1` [Compound 117]: the pKi in test [1] and in test [2] was over 7.30 in each case.
As for `CC(=O)N1CCCN(c2cc(-n3nc(Nc4ccc(N5CCN(C(=O)C(C)(C)C)CC5)cc4)nc3N)ncn2)CC1` [Compound 36], the negative-log Ki (pKi) in test [1] and in test [2] was over 7.30 each time.
As to `CC(=O)N1CCCN(c2cc(-n3nc(Nc4ccc(N5CCN(C(=O)OCC(C)C)CC5)cc4)nc3N)ncn2)CC1` [Compound 50], the pKi in test [1] and in test [2] was over 7.30 in each case.
With `CC(=O)N1[C@H](C)CN(c2cc(-n3nc(Nc4ccc(N5CCN(C(=O)OCC(C)C)CC5)cc4)nc3N)ccn2)C[C@@H]1C` [Compound 128], the pKi in test [1] and in test [2] was over 7.30 throughout.
Take `CCCOC(=O)N1CCN(c2ccc(Nc3nc(N)n(-c4ccnc(N5CCCN(S(=O)(=O)CC)CC5)c4)n3)cc2)CC1` [Compound 163]: the pKi in test [1] and in test [2] was 6.30 to 7.30 each time.
As to `CCOC(=O)N1CCN(c2ccc(Nc3nc(N)n(-c4ccnc(N5CCCN(C(=O)OC)CC5)c4)n3)cc2)CC1` [Compound 148], the pKi in test [1] and in test [2] was 6.30 to 7.30 in each case.
Regarding `CCCS(=O)(=O)N1CCCN(c2cc(-n3nc(Nc4ccc(N5CCN(C(=O)OCC)CC5)cc4)nc3N)ncn2)CC1` [Compound 146], the pKi in test [1] and in test [2] was 6.30 to 7.30 each time.
Take `CC(C)(C)OC(=O)Nc1ccc(Nc2nc(N)n(-c3cc(N4CCCN(C(=O)CC#N)CC4)ncn3)n2)cc1` [Compound 136]: the pKi in test [1] and in test [2] was over 7.30 throughout.
Consider `CCCOC(=O)Nc1ccc(Nc2nc(N)n(-c3ccnc(N4C[C@@H](C)N(C(C)=O)[C@@H](C)C4)c3)n2)cc1` [Compound 102], for which the pKi in test [1] and in test [2] was over 7.30 in each case.
Turning to `CC(=O)N1CCCN(c2cc(-n3nc(Nc4ccc(NC(=O)O[C@H]5C[C@H](C)CC[C@H]5C(C)C)cc4)nc3N)ncn2)CC1` [Compound 97], the pKi in test [1] and in test [2] was 6.30 to 7.30 each time.
Turning to `CC(=O)N1[C@H](C)CN(c2cc(-n3nc(Nc4ccc(NC(=O)O[C@@H]5C[C@@H](C)CC[C@@H]5C(C)C)cc4)nc3N)ncn2)C[C@@H]1C` [Compound 83], the pKi in test [2] was over 7.30.

The record behind these values is patent publication US7329652B2, “Diaminotriazole compounds useful as protein kinase inhibitors” (Vertex Pharamaceuticals Incorporated, priority 2004, dated 2008).
